From US8192962B2, “Processes for detecting toxic substances” (Daikin Industries, Ltd., priority 2001, dated 2012)

Tested on: Energy system protein genes
Experiment: DNA chip mRNA expression in yeast, energy system protein genes (Table 4)
Format: cell-based, Saccharomyces cerevisiae S288C
Method: Yeast (Saccharomyces cerevisiae S288C (α SUC2mal mel gap2 CUP1)) were incubated at 25° C. on YPD medium (yeast extract 1%, polypepton 2%, glucose 2%). One of toxic chemical substances was added to the cells at logarithmic growth phase, and the cells were further incubated for two hours. Cells were cultured without any chemical substance in the same condition, and were used as control. Concentrations of the chemical substances were defined to inhibit the growth of the yeast but not lead to death.
After completion of the incubation, the culture was centrifuged to collect the cells. To the cells, sodium acetate buffer (50 mM sodium acetate, 10 mM EDTA, 1% SDS) was added, and the mixture was shaken at 65° C. for five minutes, followed by returning to room temperature, and obtaining the supernatant, of which the procedures were repeated two times. To the supernatant, ½ amount of a solution of phenol/chloroform was added, and the mixture was centrifuged to give a supernatant, which was added with an equal amount of chloroform, and the mixture was centrifuged to give a supernatant. To the supernatant, an equal amount of isopropanol containing 0.3 M sodium acetate was added, and the mixture was allowed to stand at room temperature for 30 minutes, after which the mixture was centrifuged to give a sediment of the whole RNAs. Seventy % ethanol was added to the sediment, and the mixture was again centrifuged to give a sediment, which was then dried and dissolved in water. mRNA was isolated from the whole RNAs as followings. In view of the fact that a poly A chain is attached to the 3′ terminus of mRNA, a polynucleotide having a poly T structure which was immobilized on the surface of latex beads was used to trap the mRNA, and then the mRNA was washed and eluted with spine column (Oligotex-dT30<Super>mRNA Purification Kit, Takara). Reverse transcription of the mRNA was conducted with a reverse transcriptase (Super Script II Reverse Transcriptase; catalogue No. 18064-014, GibcoBRL) using fluorescence-labeled nucleotides to give cDNAs that were introduced with Cy3-dUTP or Cy5-dUTP during the reverse transcription.
The labeled cDNAs were dissolved in TE buffer (10mM Tris-HCl/1 mM EDTA, pH8.0), and the solution was dropped on the DNA chip containing the whole genes of yeast (DNA Chip Research Inc. Japan) so that the cDNAs were hybridized on the DNA chip at 65° C. for over 12 hours. The fluoresces intensity of the DNA chip was read with a scanner, and the ratio relative to the fluorescence intensity resulting from the absence of chemical substance was estimated as the following, which is shown in Tables 1 to 9: […]

Cl[C@H]1[C@H](Cl)[C@@H](Cl)[C@@H](Cl)[C@H](Cl)[C@H]1Cl [(7), γ-hexachlorocyclohexane]
The level of expressed mRNA in the presence of chemical substance/The level of expressed mRNA in the absence of chemical substance (yeast gene YAL060W): 3.3
The level of expressed mRNA in the presence of chemical substance/The level of expressed mRNA in the absence of chemical substance (yeast gene YBL058W, cells incubated two hours with the chemical substance): 1.5
The level of expressed mRNA in the presence of chemical substance/The level of expressed mRNA in the absence of chemical substance (yeast gene YBL099W, cells incubated two hours with the chemical substance): 0.9
The level of expressed mRNA in the presence of chemical substance/The level of expressed mRNA in the absence of chemical substance (yeast gene YBR001C, cells incubated two hours with the chemical substance): 0.9
The level of expressed mRNA in the presence of chemical substance/The level of expressed mRNA in the absence of chemical substance (yeast gene YBR185C, cells incubated two hours with the chemical substance): 1.2
The level of expressed mRNA in the presence of chemical substance/The level of expressed mRNA in the absence of chemical substance (yeast gene YBR221C, cells incubated two hours with the chemical substance): 1.5
The level of expressed mRNA in the presence of chemical substance/The level of expressed mRNA in the absence of chemical substance (yeast gene YCL040W): 2.9
The level of expressed mRNA in the presence of chemical substance/The level of expressed mRNA in the absence of chemical substance (yeast gene YCR012W): 1.4
The level of expressed mRNA in the presence of chemical substance/The level of expressed mRNA in the absence of chemical substance (yeast gene YCR046C, cells incubated two hours with the chemical substance): 1.2
The level of expressed mRNA in the presence of chemical substance/The level of expressed mRNA in the absence of chemical substance (yeast gene YCR105W, cells incubated two hours with the chemical substance): 1.0
The level of expressed mRNA in the presence of chemical substance/The level of expressed mRNA in the absence of chemical substance (yeast gene YDL021W): 5.9
The level of expressed mRNA in the presence of chemical substance/The level of expressed mRNA in the absence of chemical substance (yeast gene YDL067C, cells incubated two hours with the chemical substance): 0.8
The level of expressed mRNA in the presence of chemical substance/The level of expressed mRNA in the absence of chemical substance (yeast gene YDL078C, cells incubated two hours with the chemical substance): 1.7
The level of expressed mRNA in the presence of chemical substance/The level of expressed mRNA in the absence of chemical substance (yeast gene YDL107W, cells incubated two hours with the chemical substance): 1.8
The level of expressed mRNA in the presence of chemical substance/The level of expressed mRNA in the absence of chemical substance (yeast gene YDL174C): 3.6
The level of expressed mRNA in the presence of chemical substance/The level of expressed mRNA in the absence of chemical substance (yeast gene YDL181W, cells incubated two hours with the chemical substance): 1.1
The level of expressed mRNA in the presence of chemical substance/The level of expressed mRNA in the absence of chemical substance (yeast gene YDR001C): 1.5
The level of expressed mRNA in the presence of chemical substance/The level of expressed mRNA in the absence of chemical substance (yeast gene YDR050C, cells incubated two hours with the chemical substance): 1.5
The level of expressed mRNA in the presence of chemical substance/The level of expressed mRNA in the absence of chemical substance (yeast gene YDR079W, cells incubated two hours with the chemical substance): 1.3
The level of expressed mRNA in the presence of chemical substance/The level of expressed mRNA in the absence of chemical substance (yeast gene YDR178W, cells incubated two hours with the chemical substance): 0.6
The level of expressed mRNA in the presence of chemical substance/The level of expressed mRNA in the absence of chemical substance (yeast gene YDR231C): 1.7
The level of expressed mRNA in the presence of chemical substance/The level of expressed mRNA in the absence of chemical substance (yeast gene YDR298C, cells incubated two hours with the chemical substance): 1.0
The level of expressed mRNA in the presence of chemical substance/The level of expressed mRNA in the absence of chemical substance (yeast gene YDR377W, cells incubated two hours with the chemical substance): 1.1
The level of expressed mRNA in the presence of chemical substance/The level of expressed mRNA in the absence of chemical substance (yeast gene YDR529C, cells incubated two hours with the chemical substance): 0.5
The level of expressed mRNA in the presence of chemical substance/The level of expressed mRNA in the absence of chemical substance (yeast gene YEL024W, cells incubated two hours with the chemical substance): 0.7
The level of expressed mRNA in the presence of chemical substance/The level of expressed mRNA in the absence of chemical substance (yeast gene YEL039C, cells incubated two hours with the chemical substance): 0.6
The level of expressed mRNA in the presence of chemical substance/The level of expressed mRNA in the absence of chemical substance (yeast gene YER178W): 1.6
The level of expressed mRNA in the presence of chemical substance/The level of expressed mRNA in the absence of chemical substance (yeast gene YFL057C): 1.8
The level of expressed mRNA in the presence of chemical substance/The level of expressed mRNA in the absence of chemical substance (yeast gene YFR053C): 2.1
The level of expressed mRNA in the presence of chemical substance/The level of expressed mRNA in the absence of chemical substance (yeast gene YGL018C, cells incubated two hours with the chemical substance): 1.1
The level of expressed mRNA in the presence of chemical substance/The level of expressed mRNA in the absence of chemical substance (yeast gene YGL062W): 1.3
The level of expressed mRNA in the presence of chemical substance/The level of expressed mRNA in the absence of chemical substance (yeast gene YGL187C, cells incubated two hours with the chemical substance): 0.6
The level of expressed mRNA in the presence of chemical substance/The level of expressed mRNA in the absence of chemical substance (yeast gene YGL191W, cells incubated two hours with the chemical substance): 1.0
The level of expressed mRNA in the presence of chemical substance/The level of expressed mRNA in the absence of chemical substance (yeast gene YGL205W, cells incubated two hours with the chemical substance): 0.8
The level of expressed mRNA in the presence of chemical substance/The level of expressed mRNA in the absence of chemical substance (yeast gene YGL256W, cells incubated two hours with the chemical substance): 0.5
The level of expressed mRNA in the presence of chemical substance/The level of expressed mRNA in the absence of chemical substance (yeast gene YGR008C): 3.7
The level of expressed mRNA in the presence of chemical substance/The level of expressed mRNA in the absence of chemical substance (yeast gene YGR043C): 6.5
The level of expressed mRNA in the presence of chemical substance/The level of expressed mRNA in the absence of chemical substance (yeast gene YGR062C, cells incubated two hours with the chemical substance, 25° C., YPD medium): 1.3
The level of expressed mRNA in the presence of chemical substance/The level of expressed mRNA in the absence of chemical substance (yeast gene YGR087C, cells incubated two hours with the chemical substance): 1.0
The level of expressed mRNA in the presence of chemical substance/The level of expressed mRNA in the absence of chemical substance (yeast gene YGR174C, cells incubated two hours with the chemical substance): 1.0
The level of expressed mRNA in the presence of chemical substance/The level of expressed mRNA in the absence of chemical substance (yeast gene YGR192C): 1.7
The level of expressed mRNA in the presence of chemical substance/The level of expressed mRNA in the absence of chemical substance (yeast gene YGR244C): 3.9
The level of expressed mRNA in the presence of chemical substance/The level of expressed mRNA in the absence of chemical substance (yeast gene YGR254W): 1.5
The level of expressed mRNA in the presence of chemical substance/The level of expressed mRNA in the absence of chemical substance (yeast gene YHR179W): 1.9
The level of expressed mRNA in the presence of chemical substance/The level of expressed mRNA in the absence of chemical substance (yeast gene YIL160C): 1.1
The level of expressed mRNA in the presence of chemical substance/The level of expressed mRNA in the absence of chemical substance (yeast gene YIR031C, cells incubated two hours with the chemical substance): 1.4
The level of expressed mRNA in the presence of chemical substance/The level of expressed mRNA in the absence of chemical substance (yeast gene YJL052W): 2.1
The level of expressed mRNA in the presence of chemical substance/The level of expressed mRNA in the absence of chemical substance (yeast gene YJL121C, cells incubated two hours with the chemical substance): 0.7
The level of expressed mRNA in the presence of chemical substance/The level of expressed mRNA in the absence of chemical substance (yeast gene YJL166W, cells incubated two hours with the chemical substance): 0.8
The level of expressed mRNA in the presence of chemical substance/The level of expressed mRNA in the absence of chemical substance (yeast gene YJL216C, cells incubated two hours with the chemical substance): 1.5
